Measurements from patent publication US20220016101A1 (ACADIA Pharmaceuticals Inc., priority 2018, published 2022).

System: patients with MDD and an inadequate response to an SSRI or SNRI
Assay: Massachusetts General Hospital Sexual Functioning Index (MGH-SFI), Study ACP-103-042
Assay type: in vivo, human
Source text: “Massachusetts General Hospital Sexual Functioning Index (MGH-SFI)” is described, for instance, in Labbate and Lare, 2001, Psychother Psychosom. 70(4):221-225. This is a patient facing questionnaire that quantifies sexual dysfunction into 5 functional domains (“interest in sex,” “sexual arousal,” “ability to achieve orgasm,” “ability to maintain erection” (males only), and “sexual satisfaction”). Patients rate each item using a 6-point scale ranging from 1 (good function) to 6 (poor function). High scores indicate poor sexual functioning. […] The determination of the subject's status and eligibility for randomization in Stage 2 was made in a double-blind manner. […] Sexual functioning was assessed using the Massachusetts General Hospital Sexual Functioning Index or MGH-SFI (Labbate and Lare, 2001, Psychother Psychosom. 70(4):221-225). This is a patient facing questionnaire that quantifies sexual dysfunction into 5 functional domains (“interest in sex,” “sexual arousal,” “ability to achieve orgasm,” “ability to maintain erection” [malesonly], and “sexual satisfaction”). Patients rate each item using a 6-point scale ranging from 1 (good function) to 6 (poor function). The time frame for this scale is the past month. This scale was administered at baseline and Week 5 in both stages of the study. High scores indicate poor sexual functioning. In ACP-103-042 the mean scores for MGH-SFI at Baseline was calculated over all 5 domains for males and the 4 domains for females. For MGH-SFI (follow-up version) at Study Weeks 5 and 10, the mean was calculated in the same way as MGH-SFI at Baseline. […] Tables 10-27 summarize the detailed data of MGH-SFI individual items of the overall study group (Tables 10-15), the subgroup of age of <=50 (Tables 16-21) and the subgroup of age of >50 (Table 21-26). In Tables 9-26, ANCOVA=analysis of covariance; OC=observed cases; LSM=least squares mean; CI=confidence interval; SD=standard deviation; SE=standard error. Stage 1: Baseline=Study Week 0, Week 5=Study Week 5; Stage 2: Baseline=Study Week 5, Week 5=Study Weeks 10. LSM from the stage-specific ANCOVA analysis with the change from baseline as the outcome, treatment group as a factor, and the corresponding Baseline value as a covariate. 2-sided p-value for treatment difference from the stage-specific ANCOVA analysis. An treatment effect size (Cohen's d) is calculated using the formula: Effect Size=Least Square mean difference between PIM and PBO/SD. The corresponding 95% confidence interval for an effect size is calculated based on the theoretical probability distribution of the effect size. […] Tables 10-15 and 28-38 summarize the detailed data of MGH-SFI individual items of the overall study group (Tables 10-15), the female subgroup (Tables 33-37) and the male subgroup (Table 38-43). An treatment effect size (Cohen's d) is calculated using the formula: Effect Size=Least Square mean difference between PIM and PBO/SD. The corresponding 95% confidence interval for an effect size is calculated based on the theoretical probability distribution of the effect size. In Tables 10-15 and 28-38, ANCOVA=analysis of covariance; OC=observed cases; LSM=least squares mean; CI=confidence interval; SD=standard deviation; SE=standard error. Stage 1: Baseline=Study Week 0, Week 5=Study Week 5; Stage 2: Baseline=Study Week 5, Week 5=Study Weeks 10. LSM from the stage-specific ANCOVA analysis with the change from baseline as the outcome, treatment group as a factor, and the corresponding Baseline value as a covariate. 2-sided p-value for treatment difference from the stage-specific ANCOVA analysis. An treatment effect size (Cohen's d) is calculated using the formula: Effect Size=Least Square mean difference between PIM and PBO/SD. The corresponding 95% confidence interval for an effect size is calculated based on the theoretical probability distribution of the effect size.

[1] = Stage 2, Overall Study Group, 34 mg QD + SSRI/SNRI
[2] = Stage 2, Subgroup of <=50 Years
[3] = Stage 2, Subgroup of <=50 Years Old
[4] = Stage 2, Subgroup of <=50 Years Old, 34 mg QD + SSRI/SNRI
[5] = female subgroup, Stage 1 (Study Week 0 to 5), PIM 34 mg
[6] = female subgroup, Stage 1 (Study Week 5), PIM 34 mg
[7] = female subgroup, Stage 1, positive = pimavanserin better than placebo
[8] = female subgroup, Stage 2 (Study Week 5 to 10), PIM 34 mg
[9] = female subgroup, Stage 2 (Study Week 10), PIM 34 mg
[10] = female subgroup, Stage 2, positive = pimavanserin better than placebo

CC(C)COc1ccc(CNC(=O)N(Cc2ccc(F)cc2)C2CCN(C)CC2)cc1 [pimavanserin, N-(4-Fluorophenylmethyl)-N-(1-methylpiperidin-4-yl)-N′-(4-(2-methylpropyloxy)phenylmethyl)carbamide] was tested, and the “MGH-SFI 05: Overall Sexual Satisfaction, Effect Size (Cohen's d)” value (Stage 2, Overall Study Group) was 0.404, the “MGH-SFI 05: Overall Sexual Satisfaction, Week 5 Median” value (Stage 2, Overall Study Group) was 4.5 and the “MGH-SFI 06: Overall Improvement Since Last Medication Change, Effect Size (Cohen's d)” value (Stage 2, Overall Study Group) was 0.227. For the same compound, the “MGH-SFI 06: Overall Improvement Since Last Medication Change, Week 5 Median” value (Stage 2, Overall Study Group) was 4.0, the “MGH-SFI 01: Interest in Sex, Week 5 Mean (SE)” value [1] was 4.1 (0.28) and the “MGH-SFI 02: Ability to Get Sexually Aroused or Excited, Week 5 Mean (SE)” value [1] was 4.2 (0.27). The “MGH-SFI 03: Ability to Achieve Orgasm, Week 5 Mean (SE)” value [1] was 4.3 (0.32), the “MGH-SFI 04: (Men) Ability to Get and Maintain an Erection, Week 5 Mean (SE)” value [1] was 3.1 (0.54) and the “MGH-SFI 05: Overall Sexual Satisfaction, Week 5 Mean (SE)” value [1] was 4.1 (0.33). For the same compound, the “MGH-SFI 06: Overall Improvement Since Last Medication Change, Week 5 Mean (SE)” value [1] was 3.6 (0.25), the “MGH-SFI 01: Interest in Sex, Change from Baseline to Week 5 Mean (SE)” value (shortened to “MGH-SFI 01: Interest in Sex, Change … (SE)”) [2] was −0.3 (0.21) and the “MGH-SFI 01: Interest in Sex, Change from Baseline to Week 5 Median” value [2] was 0.0. For the same compound, the “MGH-SFI 01: Interest in Sex, Effect Size (Cohen's d)” value (from here on “MGH-SFI 01: Interest … (Cohen's d)”) [2] was 0.081, the “MGH-SFI 01: Interest in Sex, Week 5 Median” value [2] was 4.0 and the “MGH-SFI 02: Ability to Get Sexually Aroused or Excited, Change from Baseline to Week 5 Mean (SE)” value [3] was −0.3 (0.25). For the same compound, the “MGH-SFI 02: Ability to Get Sexually Aroused or Excited, Change from Baseline to Week 5 Median” value [3] was −1.0, the “MGH-SFI 02: Ability to Get Sexually Aroused or Excited, Effect Size (Cohen's d)” value (shortened to “MGH-SFI 02: Ability … (Cohen's d)”) [3] was 0.017 and the “MGH-SFI 02: Ability to Get Sexually Aroused or Excited, Week 5 Median” value [3] was 4.0. The “MGH-SFI 03: Ability to Achieve Orgasm, Change from Baseline to Week 5 Mean (SE)” value [3] was −0.3 (0.25), the “MGH-SFI 03: Ability to Achieve Orgasm, Change from Baseline to Week 5 Median” value [3] was 0.0 and the “MGH-SFI 03: Ability to Achieve Orgasm, Effect Size (Cohen's d)” value (shortened to “MGH-SFI 03: Ability … (Cohen's d)”) [3] was 0.449. For the same compound, the “MGH-SFI 03: Ability to Achieve Orgasm, Week 5 Median” value [3] was 4.0, the “MGH-SFI 02: Ability to Get Sexually Aroused or Excited, Week 5 Mean (SE)” value [4] was 4.1 (0.33) and the “MGH-SFI 03: Ability to Achieve Orgasm, Week 5 Mean (SE)” value [4] was 4.1 (0.40). The “MGH-SFI 01: Interest in Sex, Week 5 Mean (SE)” value (Stage 2, Subgroup of <=50 Years, 34 mg QD + SSRI/SNRI) was 3.9 (0.36), the “MGH-SFI Items effect sizes, mean change from baseline to Week 5 vs placebo” value (female patients) was > 0.5 and the “MGH-SFI 01: Interest in Sex, Change … (SE)” value [5] was −0.9 (0.21). For the same compound, the “MGH-SFI 01: Interest in Sex, Change from Baseline to Week 5 Median” value [5] was −1.0, the “MGH-SFI 02: Ability to Get Sexually Aroused or Excited, Change from Baseline to Week 5 Mean (SE)” value [5] was −0.8 (0.17) and the “MGH-SFI 02: Ability to Get Sexually Aroused or Excited, Change from Baseline to Week 5 Median” value [5] was −1.0. For the same compound, the “MGH-SFI 03: Ability to Achieve Orgasm, Change from Baseline to Week 5 Mean (SE)” value [5] was −1.2 (0.27), the “MGH-SFI 03: Ability to Achieve Orgasm, Change from Baseline to Week 5 Median” value [5] was 0.0 and the “MGH-SFI 05: Overall Sexual Satisfaction, Change from Baseline to Week 5 Mean (SE)” value [5] was −0.9 (0.26). For the same compound, the “MGH-SFI 05: Overall Sexual Satisfaction, Change from Baseline to Week 5 Median” value [5] was 0.0, the “MGH-SFI 01: Interest in Sex, Week 5 Mean (SE)” value [6] was 3.7 (0.29) and the “MGH-SFI 01: Interest in Sex, Week 5 Median” value [6] was 4.0. The “MGH-SFI 02: Ability to Get Sexually Aroused or Excited, Week 5 Mean (SE)” value [6] was 3.7 (0.28), the “MGH-SFI 02: Ability to Get Sexually Aroused or Excited, Week 5 Median” value [6] was 3.5 and the “MGH-SFI 03: Ability to Achieve Orgasm, Week 5 Mean (SE)” value [6] was 3.8 (0.28). The “MGH-SFI 03: Ability to Achieve Orgasm, Week 5 Median” value [6] was 4.0, the “MGH-SFI 05: Overall Sexual Satisfaction, Week 5 Mean (SE)” value [6] was 3.8 (0.29) and the “MGH-SFI 05: Overall Sexual Satisfaction, Week 5 Median” value [6] was 3.5. The “MGH-SFI 06: Overall Improvement Since Last Medication Change, Week 5 Mean (SE)” value [6] was 3.2 (0.17), the “MGH-SFI 06: Overall Improvement Since Last Medication Change, Week 5 Median” value [6] was 4.0 and the “MGH-SFI 01: Interest … (Cohen's d)” value [7] was 0.561. The “MGH-SFI 02: Ability … (Cohen's d)” value [7] was 0.616, the “MGH-SFI 03: Ability … (Cohen's d)” value [7] was 0.749 and the “MGH-SFI 05: Overall Sexual Satisfaction, Effect Size (Cohen's d)” value [7] was 0.627. For the same compound, the “MGH-SFI 06: Overall Improvement Since Last Medication Change, Effect Size (Cohen's d)” value [7] was 0.634, the “MGH-SFI 01: Interest in Sex, Change … (SE)” value [8] was −0.3 (0.17) and the “MGH-SFI 01: Interest in Sex, Change from Baseline to Week 5 Median” value [8] was 0.0. For the same compound, the “MGH-SFI 02: Ability to Get Sexually Aroused or Excited, Change from Baseline to Week 5 Mean (SE)” value [8] was −0.3 (0.20), the “MGH-SFI 02: Ability to Get Sexually Aroused or Excited, Change from Baseline to Week 5 Median” value [8] was 0.0 and the “MGH-SFI 03: Ability to Achieve Orgasm, Change from Baseline to Week 5 Mean (SE)” value [8] was −0.3 (0.20). The “MGH-SFI 03: Ability to Achieve Orgasm, Change from Baseline to Week 5 Median” value [8] was 0.0, the “MGH-SFI 05: Overall Sexual Satisfaction, Change from Baseline to Week 5 Mean (SE)” value [8] was −0.4 (0.26) and the “MGH-SFI 05: Overall Sexual Satisfaction, Change from Baseline to Week 5 Median” value [8] was 0.0. For the same compound, the “MGH-SFI 01: Interest in Sex, Week 5 Mean (SE)” value [9] was 4.4 (0.34), the “MGH-SFI 01: Interest in Sex, Week 5 Median” value [9] was 5.0 and the “MGH-SFI 02: Ability to Get Sexually Aroused or Excited, Week 5 Mean (SE)” value [9] was 4.5 (0.32). The “MGH-SFI 02: Ability to Get Sexually Aroused or Excited, Week 5 Median” value [9] was 5.0, the “MGH-SFI 03: Ability to Achieve Orgasm, Week 5 Mean (SE)” value [9] was 4.6 (0.38) and the “MGH-SFI 03: Ability to Achieve Orgasm, Week 5 Median” value [9] was 5.0. For the same compound, the “MGH-SFI 05: Overall Sexual Satisfaction, Week 5 Mean (SE)” value [9] was 4.6 (0.38), the “MGH-SFI 05: Overall Sexual Satisfaction, Week 5 Median” value [9] was 5.0 and the “MGH-SFI 06: Overall Improvement Since Last Medication Change, Week 5 Mean (SE)” value [9] was 3.6 (0.29). The “MGH-SFI 06: Overall Improvement Since Last Medication Change, Week 5 Median” value [9] was 4.0, the “MGH-SFI 01: Interest … (Cohen's d)” value [10] was 0.073 and the “MGH-SFI 02: Ability … (Cohen's d)” value [10] was −0.064. For the same compound, the “MGH-SFI 03: Ability … (Cohen's d)” value [10] was 0.132.
